Measurements reported in patent EP0528146A1, “N-phenylthiourea derivatives and pharmaceutical use thereof” (SANDOZ LTD., priority 1991, dated 1993).

Tests used:
Settings in all cases: in supplemented diet
HDL-cholesterol = experiment: Test A: In vivo HDL-cholesterol test; set-up: species or system Male Sprague-Dawley rats
Procedure: a) Test A: In vivo HDL-cholesterol test: Male Sprague-Dawley rats weighing 200-225 g are housed two per cage and fed Purina Rodent Chow Special Mix 5001-S supplemented with 0.25 % cholic acid and 0.75 % cholesterol by Purina and water ad libitum for seven or eight days. Each test substance is then administered to a group of six rats in the supplemented diet for eight or twenty-one days, the test substance constituing 0.005-0.20 % of the diet. Body weight and food consumption data are recorded prior to diet administration, prior to test substance administration and at termination. Typical doses of the test substance are 4-200 mg/kg/day. At termination, the rats are anesthetized, sacrificed by exsanguination, the blood is collected, kept on ice while clotting, centrifuged, and the serum is separated. […] Remaining sera aliquots are refrigerated and frozen for storage. HDL is isolated by micro-ultracentrifugation (mUC) or fast protein liquid chromatography (FPLC) techniques. The mUC method is as follows: 175 µl of the 1.06 g/ml density-adjusted blood serum is centrifuged at 42000 rpm in a Beckmann 42.2 Ti rotor at 20°C for 2.5 hours. 95 µl is fractionated from the top, leaving 80 µl in the bottom. FPLC fractionation is performed by Superose^R 6 (highly cross-linked beaded agarose having a dry bead diameter of 20-40 µm) gel permeation chromatography using the method of Kieft et al., J.Lipid Res. 32 (1991) 859-866 modified by the technique described in France et al., Laboratory Robotics and Automation 2 (1990) 155-173. The column buffer is Tris buffered saline solution [i.e. 0.05 M Tris (2-amino-2-hydroxymethyl-1,3-propanediol) and 0.15 M sodium chloride in distilled deionized water (ddH₂O)] containing 0.01 % sodium azide. 200 µl of serum is injected and forty 0.5 ml fractions are collected. Cholesterol is assayed on total, 42.2 Ti rotor bottoms and FPLC fractions using the Sigma Diagnostics kit for the enzymatic determination of cholesterol, Procedure No. 352, modified for use with ninety-six well microtiter plates. The reconstituted reagent (after addition of water) contains 300 U/l cholesterol oxidase, 100 U/l cholesterol esterase, 1000 U/l peroxidase (horseradish), 0.3 mmoles/l 4-aminoantipyrine and 30.0 mmoles/l p-hydroxybenzenesulfonate in a pH 6.5 buffer. This method uses cholesterol esterase to hydrolyze cholesterol esters to free cholesterol. Free cholesterol is oxidized to produce hydrogen peroxide that is used to form a quinoneimine dye. Since the reaction takes place quantitatively, the concentration of the dye, measured colorimetrically, is directly proportional to the cholesterol content of the sample. Calibrator, standard and sample may be diluted with saline if cholesterol concentrations cause readings outside the linear range. 20 µl of calibrator, standard or test sample is mixed with a 200 µl aliquot of reagent in a ninety-six well microtiter plate. Each mixture is incubated at 20°-25° for 25 minutes, and absorbance is determined by a colorimetric microtiter plate reader at 490, 492 or 500 nm. Top cholesterol (i.e. LDL-cholesterol) is determined by subtraction. Quality of micro-ultracentrifugation separation is determined by Corning universal agarose gel electrophoresis with Fat Red 7B stain. FPLC fraction Apo A-I content is assessed by the non-reducing SDS-PAGE method of France et al., J. Lipid Res. 30 (1989) 1997-2004. HDL-cholesterol is quantitated by assessing the cholesterol content of fractions containing Apo A-I and lacking immunoreactive Apo B protein. Other conventional methods may be used to assay the blood serum samples for HDL-cholesterol and total triglyceride content.

Apo A-I = experiment: Test B: Apo A-I test (rat Apo A-I ELISA on blood serum of the test animals of Test A); format: in vivo
Procedure: The Apo A-I blood serum level of the test animals of Test A is determined by rat Apo A-I Enzyme-Linked Immunosorbent Assay (ELISA) as follows:
1. Production and purification of rabbit anti-rat Apo A-I antibody:
Rat Apo A-I is purified from pooled rat blood serum by sequential ultracentrifugation and isolation of rat high-density lipoproteins (HDL). Following delipidation, Apo A-I is resolved from other HDL proteins by gel filtration chromatography. Antisera are raised in three rabbits (Pocono Rabbit Farms, Candensis, PA) by serial subcutaneous injections of purified rat Apo A-I by conventional immunization protocols. After one year of repeated bleedings, antisera are pooled, aliquoted and frozen at -20°. The crude antisera are defrosted, applied to a cyanogen bromide-activated Sepharose^R Cl-4B (beaded agarose having a 60-140 µm dry bead diameter) column to which purified human HDL had been covalently linked, the column is washed with saline, and the purified antibody is eluted with 1 M pH 3 glycine solution. The glycine is removed by dialysis utilizing Tris Buffered Saline Solution to obtain a concentrated solution of purified rabbit anti-rat Apo A-I antibody.
2. Buffers, reagents and standards:
• Sodium carbonate adsorption buffer: 2.25 g of sodium carbonate, 4.40 g of sodium bicarbonate and 0.15 g of sodium azide are dissolved in 1.4 l of ddH₂O, the pH is adjusted to 9.6 with sodium hydroxide, and the buffer is diluted with ddH₂O to a total volume of 1.5 l; • pH 8 0.5 M Tris: a solution of 60.55 g of Tris·HCl (2-amino-2-hydroxymethyl-1,3-propanediol·hydrochloride) in 1.0 l of ddH₂O is adjusted to pH 8.0 with 10 N sodium hydroxide solution; • secondary antibody buffer: 200 ml of pH 8 0.5 M Tris is added to a solution of 40 g of bovine serum albumin (BSA) Cohn Fraction V in 1.8 l of ddH₂O, 0.2 g of sodium azide is added, and 18.0 g of sodium chloride is added; • substrate buffer: 0.1 g of sodium azide is added with stirring to 105.1 g of diethanolamine and 500 ml of ddH₂O, 10 ml of 0.5 M magnesium chloride·hexahydrate solution is added, the pH is adjusted to 9.8 with 12 N hydrochloric acid, and the solution is diluted to a total volume of 1 l with ddH₂O; • 30 x ELISA wash buffer: 525.96 g of sodium chloride, 76.68 g of Tris, 6 g of sodium azide and 30 ml of Tween^R20 [polyoxyethylene (20) sorbitan monolaurate] are combined, the pH is adjusted to 7.3 with 12 N hydrochloric acid, and the solution is diluted to a total volume of 2 l with ddH₂O; • 1 x ELISA wash buffer: 1 volume of 30 x ELISA wash buffer is diluted with 29 volumes of ddH₂O; • sample diluent buffer: 886.34 ml of secondary antibody buffer and 113.66 ml of Tween^R20 are mixed well to obtain an 11.366 % v/v Tween^R20 solution; • standard diluent buffers: (A) 780 mi of secondary antibody buffer and 220 ml of Tween^R20 are mixed well to obtain a 22 % v/v Tween^R20 solution. (B) 890 ml of secondary antibody buffer and 110 ml of Tween^R20 are mixed well to obtain an 11 % v/v Tween^R20 solution; • rat serum pool A: this source of rat blood serum is used to construct the standard curve for each assay. It is calibrated against purified Apo A-I and contains 45 ± 2.7 mg Apo A-I/dl blood serum; • rat serum pool B: this is used as a low internal standard in each assay for monitoring assay drift and contains 40 mg Apo A-I/dl blood serum; • rat serum pool C: this is derived from rats treated with reference compound (gemfibrozil), is used as a high internal standard for monitoring assay drift and contains 70 mg Apo A-I/dl blood serum.
Purified rat Apo A-I from a frozen stock containing 942 µg/ml is diluted in sodium carbonate adsorption buffer to a final concentration of 3.7 µg/ml. Into each well of several Nunc polystyrene ninety-six well microtiter plates is added 100 µl of this solution. Apo A-I is allowed to adsorb onto the plates for 48 hours at 4°. […]

Total triglycerides = Total triglycerides in blood serum of the rats of Test A; format: in vivo, Male Sprague-Dawley rats
Procedure: Male Sprague-Dawley rats weighing 200-225 g are housed two per cage and fed Purina Rodent Chow Special Mix 5001-S supplemented with 0.25 % cholic acid and 0.75 % cholesterol by Purina and water ad libitum for seven or eight days. Each test substance is then administered to a group of six rats in the supplemented diet for eight or twenty-one days, the test substance constituing 0.005-0.20 % of the diet. Body weight and food consumption data are recorded prior to diet administration, prior to test substance administration and at termination. Typical doses of the test substance are 4-200 mg/kg/day.
At termination, the rats are anesthetized, sacrificed by exsanguination, the blood is collected, kept on ice while clotting, centrifuged, and the serum is separated. […] Remaining sera aliquots are refrigerated and frozen for storage.
Total triglycerides are assayed on blood serum using the Boehringer Mannheim Diagnostics Reagentset^R Triglycerides-GB kit (Cat. No. 877557) modified for microtiter plate assays as follows: The reagents are prepared according to the described method. 100 µl of Working Solution 1 and 20 µl of dilute blood serum [1:1 blood serum:saline (saline is 0.15 M sodium chloride in ddH₂O)] are added to each well of a ninety-six well microtiter plate, mixed and incubated at 20°-25° for at least 5 minutes. 100 µl of working solution 2 is added to each well, and the contents are mixed and incubated at 20°-25° for at least 5 minutes and read at 490, 492 or 500 nm. The total triglyceride content in mg/dl of blood serum is calculated by comparing the absorbance with the absorbance of known samples.
Other conventional methods may be used to assay the blood serum samples for HDL-cholesterol and total triglyceride content.

[1] = duration of treatment 8 days, dose mg/kg/day: Example 1 60, Example 2 79, Gemfibrozil 50
[2] = duration of treatment 21 days, dose mg/kg/day: Example 1 65, Example 2 73, Gemfibrozil 44

## CCCNC(=S)Nc1cc(Cl)ccc1C [Example 1, N-(5-Chloro-2-methylphenyl)-N'-propylthiourea]
HDL-cholesterol; [1]
  HDL-cholesterol level increase (%): 225%
HDL-cholesterol; [2]
  HDL-cholesterol level increase (%): 256%
Apo A-I; [1]
  Apo-I level increase (%): 65%
Apo A-I; [2]
  Apo-I level increase (%): 47%
Total triglycerides; [1]
  Total triglycerides level decrease (%): 45%
Total triglycerides; [2]
  Total triglycerides level decrease (%): 70%

## Cc1ccc(Cl)cc1NC(=S)NCC(C)C [Example 2, N-(5-Chloro-2-methylphenyl)-N'-2-methylpropylthiourea]
HDL-cholesterol; [1]
  HDL-cholesterol level increase (%): 267%
HDL-cholesterol; [2]
  HDL-cholesterol level increase (%): 323%
Apo A-I; [1]
  Apo-I level increase (%): 69%
Apo A-I; [2]
  Apo-I level increase (%): 102%
Total triglycerides; [1]
  Total triglycerides level decrease (%): 49%
Total triglycerides; [2]
  Total triglycerides level decrease (%): 44%

## Cc1ccc(C)c(OCCCC(C)(C)C(=O)O)c1 [Gemfibrozil, reference compound]
HDL-cholesterol; [1]
  HDL-cholesterol level increase (%): 100%
HDL-cholesterol; [2]
  HDL-cholesterol level increase (%): 106%
Apo A-I; [1]
  Apo-I level increase (%): 50%
Apo A-I; [2]
  Apo-I level increase (%): 44%
Total triglycerides; [1]
  Total triglycerides level decrease (%): 35%
Total triglycerides; [2]
  Total triglycerides level decrease (%): 43%
